Measurements published in patent US6864249B2, “Piperidine and azetidine thrombin inhibitors” (LG Life Sciences, Ltd., priority 1998, dated 2005).
Where a name gives a salt, the structure may show the parent alone. Read-outs that look alike come from different tables or passages of the source.

Experiments:
[1] = Pharmacokinetic study for oral bioavailability in rats; format: in vivo, Male Sprague-Dawley rats; settings: oral dosing in rats, 30 mg/kg
Protocol: Pharmacokinetic Studies for Determining Oral Bioavailability
Male Sprague-Dawley rats (250-300 g) were restrained individually in a surgical plate (Dae Jong Instrument Company, Seoul, Korea) as supine position. The femoral artery and the femoral vein (iv only) of rats were cannulated with polyethylene tubing (PE-50, Clay Adams, Parsippany, N.J., USA) under light ether anesthesia. After complete recovery from anesthesia, rats were given 30 mg/kg of test compound dissolved in distilled water via oral gavage or given 10 mg/kg via the femoral vein for intravenous (iv) study. Blood samples (0.25 mL) were collected from the femoral artery at 0 (for control), 1 (iv only), 5, 15, 30, 60, 90 (iv only), 120, 180, and 240 min after dosing.
Blood samples were taken into heparinized tube (25 U/mL), deproteinized with 2 volumes of methanol, and centrifuged. The resulting supernatant (60 μL) was analyzed by HPLC eluting with a mixture of 0.1% trifluoroacetic acid aqueous solution and acetonitrile with a ratio of 81% to 19%. Plasma concentration of test compound was recorded and used to calculate the pharmacokinetic parameters: maximum plasma concentration of test compound (Cmax), time of maximum plasma concentration (Tmax) area under the curve (AUC), and fraction of test compound absorbed (F).
Table 2 illustrates the pharmacokinetic results for some exemplary compounds of invention obtained upon oral dosing in rats.

thrombus formation = assay: Rat venous thrombosis model (thromboplastin infusion and vena cava stasis, clot weight); format: in vivo, Male Sprague-Dawley rats; settings: 1 mg/kg iv bolus 5 min before thromboplastin infusion
Protocol: In vivo Studies of the Compounds Claimed Herein Were Conducted Using the Following Procedure
Male Sprague-Dawley rats (body weights 250-300 g, 3-4/group) were anaesthetized by intraperitoneal injection with urethane solution (1.25 g/kg). […] The venae iliolumbar and spermatica were ligated with a silk thread. Thrombus formation was initiated by infusion of a thromboplastin preparation (Simplastin®) using an infusion pump (Model 100, IITC Life Science, USA) via the left femoral vein at 0.5 mL/kg/min. Simplastin® (Organon Teknika, USA) was reconstituted with 4 mL of distilled water and then given diluted at 1:2.5 in distilled water. At the start of infusion for 30 seconds, the vena cava was ligatured below the left renal vein. After the end of infusion, vena cava was also ligatured above the iliac veins 16 mm apart from upper ligature. After 15 min of stasis, the thrombus formed inside the vessel was carefully removed and weighed. Before wighing, the excess blood was removed by blotting the wet clot on the wet Whatman filter paper (see, Millet, J.; Theveniaux, J.; Brown, N. L. Thromb. Haemost. 1992, 67, 176).
Saline (control) or test compounds (1 mg/kg) were injected as a bolus via the femoral vein starting 5 min before the thromboplastin infusion. Bolus injection volume was 0.5 mL/kg. Antithrombotic activity was expressed as a percentage where: Antithrombotic activity (%)=100×(A−B)/A • A=mean clot weight of control group • B=mean clot weight of test compound group

[2] = target: T1, Thrombin prepared from human plasma (Homo sapiens, UniProt P00734); assay: In vitro enzyme assay for thrombin inhibition constants (Chromozym TH substrate, Dixon plot); format: biochemical; settings: pH 7.8, room temperature
T1 construct: Thrombin used in this test was prepared from human plasma; from tissue; host or cells: human plasma
Protocol: In vitro Enzyme Assays for Determining Inhibition Constants
The activity of thrombin was measured spectrophotometrically using tosyl-Gly-Pro-Arg-p-nitroanilide acetate (Chromozym TH, Boehringer Mannheim) as a substrate. […] Each compound was dissolved in DMSO to make a 1 mM stock solution and dilutions were made thereof with assay buffer (0.1 M Tris HCl, 0.15 M NaCl, 0.1% polyethylene glycol 8000, pH 7.8). Different concentrations of inhibitor were mixed with […] of thrombin in 0.8 mL of the buffer. The mixture was incubated for 10 min at room temperature before adding 0.2 mL of the substrate to a final concentration of 20 μM. […] A graph for the reciprocal value of initial velocity to the inhibitor concentration was derived from progress curves by fitting the data using a linear regression program.

[3] = male, Sprague-Dawley, rat, plasma
[4] = male, Sprague-Dawley, rat, plasma, read-out: AUC (converted)
[5] = male, Sprague-Dawley, rat, plasma, read-out: Cmax

Structure (SMILES): N=C(N)c1ccc(CNC(=O)[C@@H]2CCCN2C(=O)[C@H](NS(N)(=O)=O)C(c2ccccc2)c2ccccc2)s1 [Example 1, N-aminosulfonyl-D-diphenylalanyl-L-prolyl-[(5-amidino-2-thienyl)methyl]amide.TFA]
- Tmax [1, 3]: 60 min
- AUC [1, 4]: 4220 ng·h/mL
- Cmax [1]: 2200 ng/mL
- Antithrombotic activity (inhibition of thrombus formation) (thrombus formation): 100%

Structure (SMILES): CS(=O)(=O)N[C@@H](C(=O)N1CCC[C@H]1C(=O)NCc1ccc(C(=N)N)s1)C(c1ccccc1)c1ccccc1 [Example 3, N-methylsulfonyl-D-diphenylalanyl-L-prolyl-[(5-amidino-2-thienyl)methyl]amide.TFA]
- Ki [2]: 0.004 nM
- Antithrombotic activity (inhibition of thrombus formation) (thrombus formation): 100%

Structure (SMILES): CS(=O)(=O)N[C@@H](C(=O)N1CCC[C@H]1C(=O)NCc1ccc(CN)s1)C(c1ccccc1)c1ccccc1 [Example 5, N-methylsulfonyl-D-diphenylalanyl-L-prolyl-[(5-aminomethyl-2-thienyl)methyl]amide.TFA]
- Ki [2]: 5.8 nM
- Tmax [1, 3]: 32 min
- AUC [1, 4]: 4670 ng·h/mL
- Cmax [1, 5]: 1800 ng/mL

Structure (SMILES): COC(=O)N[C@@H](C(=O)N1CCC[C@H]1C(=O)NCc1ccc(C(=N)N)s1)C(c1ccccc1)c1ccccc1 [Example 8, N-methoxycarbonyl-D-diphenylalanyl-L-prolyl-[(5-amidino-2-thienyl)methyl]amide.TFA]
- Ki [2]: 0.014 nM
- Tmax [1, 3]: 60 min
- AUC [1, 4]: 26900 ng·h/mL
- Cmax [1, 5]: 9600 ng/mL

Structure (SMILES): N=C(N)c1csc(CNC(=O)[C@@H]2CCCN2C(=O)[C@H](NS(N)(=O)=O)C(c2ccccc2)c2ccccc2)c1 [Example 11, N-aminosulfonyl-D-diphenylalanyl-L-prolyl-[(4-amidino-2-thienyl)methyl]amide.TFA]
- Ki [2]: 0.022 nM
- Tmax [1, 3]: 45 min
- Cmax [1, 5]: 2100 ng/mL
- AUC [1]: 4230 ng·h/mL
- Antithrombotic activity (inhibition of thrombus formation) (thrombus formation): 100%

Structure (SMILES): COC(=O)N[C@@H](C(=O)N1CCC[C@H]1C(=O)NCc1cc(C(=N)N)cs1)C(c1ccccc1)c1ccccc1 [Example 14, N-methoxycarbonyl-D-diphenylalanyl-L-prolyl-[(4-amidino-2-thienyl)methyl]amide.TFA]
- Tmax [1, 3]: 80 min
- Cmax [1, 5]: 4500 ng/mL
- AUC [1]: 14200 ng·h/mL

Structure (SMILES): N=C(N)c1cc(CNC(=O)[C@@H]2CCCN2C(=O)[C@H](NS(N)(=O)=O)C(c2ccccc2)c2ccccc2)cs1 [Example 15, N-aminosulfonyl-D-diphenylalanyl-L-prolyl-[(5-amidino-3-thienyl)methyl]amide.TFA]
- Ki [2]: 0.056 nM
- Antithrombotic activity (inhibition of thrombus formation) (thrombus formation): 100%

Structure (SMILES): COC(=O)N[C@@H](C(=O)N1CCC[C@H]1C(=O)NCc1csc(C(=N)N)c1)C(c1ccccc1)c1ccccc1 [Example 19, N-methoxycarbonyl-D-diphenylalanyl-L-prolyl-[(5-amidino-3-thienyl)methyl]amide.TFA]
- Ki [2]: 0.06 nM
- Tmax [1, 3]: 80 min
- Cmax [1, 5]: 5200 ng/mL
- AUC [1]: 21620 ng·h/mL
- Antithrombotic activity (inhibition of thrombus formation) (thrombus formation): 100%

Structure (SMILES): N=C(N)c1ccc(CNC(=O)[C@@H]2CCCN2C(=O)[C@H](NCC(=O)O)C(c2ccccc2)c2ccccc2)s1 [Example 29, N-carboxymethyl-D-diphenylalanyl-L-prolyl-[(5-amidino-2-thienyl)methyl]amide.2TFA]
- Ki [2]: 0.015 nM
- Tmax [1, 3]: 15 min
- AUC [1]: 23170 ng·h/mL
- Cmax [1]: 9500 ng/mL
- Antithrombotic activity (inhibition of thrombus formation) (thrombus formation): 100%

Structure (SMILES): COC(=O)N[C@@H](C(=O)N1CCC[C@H]1C(=O)NCc1ccc(C(=N)N)o1)C(c1ccccc1)c1ccccc1 [Example 35, N-methoxycabonyl-D-diphenylalanyl-L-prolyl-[(5-amidino-2-furanyl)methyl]amide.TFA]
- Ki [2]: 4.6 nM
- Tmax [1, 3]: 45 min
- AUC [1, 4]: 16100 ng·h/mL
- Cmax [1, 5]: 7100 ng/mL

Structure (SMILES): N=C(N)c1csc(CNC(=O)[C@@H]2CCCN2C(=O)[C@H](NS(N)(=O)=O)C(c2ccccc2)c2ccccc2)n1 [Example 37, N-aminosulfonyl-D-diphenylalanyl-L-prolyl-[(4-amidino-2-thiazolyl)methyl]amide.TFA]
- Ki [2]: 0.12 nM

Structure (SMILES): Cn1c(CNC(=O)[C@@H]2CCCN2C(=O)[C@H](NS(C)(=O)=O)C(c2ccccc2)c2ccccc2)ccc1C(=N)N [Example 38, N-methylsulfonyl-D-diphenylalanyl-L-prolyl-[(5-amidino-1-methyl-2-pyrrolyl)methyl]amide.TFA]
- Ki [2]: 0.23 nM

Structure (SMILES): N=C(N)c1cc(CNC(=O)[C@@H]2CCCN2C(=O)[C@H](NCC(=O)O)C(c2ccccc2)c2ccccc2)cs1 [Example 39, N-carboxymethyl-D-diphenylalanyl-L-prolyl-[(5-amidino-3-thienyl)methyl]amide.2TFA]
- Tmax [1, 3]: 15 min
- AUC [1]: 3530 ng·h/mL
- Cmax [1]: 4600 ng/mL

Structure (SMILES): N=C(N)c1csc(CNC(=O)[C@@H]2CCCN2C(=O)[C@H](NCC(=O)O)C(c2ccccc2)c2ccccc2)n1 [Example 40, N-carboxymethyl-D-diphenylalanyl-L-prolyl-[(4-amidino-2-thiazolyl)methyl]amide.2TFA]
- Ki [2]: 0.6 nM
- Tmax [1, 3]: 25 min
- AUC [1]: 18770 ng·h/mL
- Cmax [1]: 11100 ng/mL

Structure (SMILES): N=C(N)c1ccc(CNC(=O)[C@@H]2CCCN2C(=O)[C@H](NCCC(=O)O)C(c2ccccc2)c2ccccc2)s1 [Example 41, N-(2-carboxyethyl)-D-diphenylalanyl-L-prolyl-[(5-amidino-2-thienyl)methyl]amide.2TFA]
- Ki [2]: 0.011 nM
- Tmax [1, 3]: 20 min
- AUC [1]: 8380 ng·h/mL
- Cmax [1]: 4900 ng/mL
- Antithrombotic activity (inhibition of thrombus formation) (thrombus formation): 100%

Structure (SMILES): CC(C)(C)OC(=O)N[C@@H](C(=O)N1CCC[C@H]1C(=O)NCc1ccc(C(N)=NN)s1)C(c1ccccc1)c1ccccc1 [Example 42, N-Boc-D-Diphenylalanyl-L-prolyl-[(5-amidrazono-2-thienyl)methyl]amide.TFA]
- Ki [2]: 84 nM

Structure (SMILES): NN=C(N)c1ccc(CNC(=O)[C@@H]2CCCN2C(=O)[C@H](N)C(c2ccccc2)c2ccccc2)s1 [Example 43, D-diphenylalanyl-L-prolyl-[(5-amidrazono-2-thienyl)methyl]amide.2TFA]
- Ki [2]: 9.1 nM

Structure (SMILES): CS(=O)(=O)N[C@H](Cc1ccccc1)C(=O)N1CCC[C@H]1C(=O)NCc1ccc(C(N)=NN)s1 [Example 44, N-methylsulfonyl-D-phenylalanyl-L-prolyl-[(5-amidrazono-2-thienyl)methyl]amide.TFA]
- Ki [2]: 395 nM
